What was measured:
[1] = system: peripheral blood mononuclear cells (PMBCs); settings: published studies (Stehle et al. 2013); cited from earlier work
activated T cells = experiment: T cell viability, Cell-Titer Glo Luminescent Cell Viability Assay; type: cell-based, human; settings: for Luciferase RLU (T cell viability): log[Agonist]
Procedure: Briefly, human cells were isolated from healthy donors' PBMCs by using EasySep™ Human T Cell Enrichment Kit (Stemcell Technologies) according to manufacturer's instruction. […] Cells were cultured in RPMI 1640 medium supplemented with 10% FCS and 100 I.U./mL penicillin/streptomycin in humidified incubator at 37° C. with 5% CO2. […] Culture supernatants were collected on Day 2 or 3 for cytokine analysis. Plates were then harvested on DNA specific filter papers (Perkin Elmer) using Harvester96 (Tomtec Life Sciences). The radiolabeled filters were covered with beta scintillation liquid (Perkin Elmer) and read in Microbeta® counter plates (Perkin Elmer). ^3H Thymidine was pulsed on Day 2 for T cell proliferation assay. The impact by sunitinib and axitinib on T cell proliferation and viability were repeated as previously published (FIGS. 1A and 1B).
Cell viability was measured by Cell-Titer Glo Luminescent Cell Viability Assay® (Promega, Madison). […] Table 4 below provides the Luciferase RLU values reflecting T cell viability for each of the respective inhibitors.

[2] = system: CD3/CD28-stimulated effector cells (T cells from healthy donors' PBMCs); experiment: T cell proliferation assay (3H thymidine incorporation), CD3/CD28-stimulated T cells; type: cell-based, human; settings: for Thymidine incorporation(CPM): log[Agonist]
Excerpt: Briefly, human cells were isolated from healthy donors' PBMCs by using EasySep™ Human T Cell Enrichment Kit (Stemcell Technologies) according to manufacturer's instruction. […] Culture supernatants were collected on Day 2 or 3 for cytokine analysis. Plates were then harvested on DNA specific filter papers (Perkin Elmer) using Harvester96 (Tomtec Life Sciences). The radiolabeled filters were covered with beta scintillation liquid (Perkin Elmer) and read in Microbeta® counter plates (Perkin Elmer). ^3H Thymidine was pulsed on Day 2 for T cell proliferation assay.

CT26 colon carcinoma = experiment: In vivo tumor efficacy, CT26 model, PF-06463922 with anti-PD-L1 (Example 2); design: species or system Balb/c mice; settings: for Average tumor volume: anti-PD-L1 10 mg/kg i.p. every 3 days x3, PF-06463922 3 mg/kg orally once daily; for Effect on CT26 tumor growth: treatment started in tumors of 100-150 mm^3, compared with isotype
Excerpt: Both CT26 colon carcinoma and B16 melonoma cell lines have published mutanome and transcriptome data, with no known ALK fusion events or oncogenic mutations. Castle et al, BMC Genomics, 15:190 (13 Mar. 2014); Castle et al, CAN 11:3722 (11 Jan. 2012). […] The percentage of TGI was defined as 1-(Tumor volumnTreated/Tumor volumnisotype control)×100.
(§1) The CT26 colon carcinoma cell line was purchased from ATCC® CRL-2638™. B16-F10 (‘B16’) melonoma cell lines were purchased from ATCC® CRL-6475™. Cells were cultured in DMEM medium supplemented with 10% fetal bovine serum, and 100 I.U./mL penicillin/streptomycin at 37° C. in an atmosphere of 5% CO2 in air, and IMPACT-tested for pathogens at Research Animal Diagnostic Laboratory (RADIL) (Columbia, Mo.). Pathogen-free cells growing in an exponential growth phase were harvested and used for tumor inoculation.
(§2) Rat IgG2a isotype control were purchased from BioXcell (clone 2A3)(West Lebanon, N.H.).
(§3) For the second study, C57BL/6 mice were inoculated subcutaneously in the right lower flank with 0.1 ml of 1×10^6 B16 skin melanoma cells. When tumor bearing mice achieved a mean tumor volume of 100 to 150 mm^3, mice were randomly assigned to 1 of 4 treatment groups, n=10.

B16 skin melanoma = experiment: In vivo tumor efficacy, B16 melanoma model, PF-06463922 with anti-PD-L1 (Example 2); design: species or system C57BL/6 mice; settings: end of study (day 22 post tumor implant), n=10
Procedure: as §1, §2, §3

## CNC(=O)c1ccccc1Sc1ccc2c(/C=C/c3ccccn3)n[nH]c2c1 [Axitinib, axitinib]
[1]
  Toxicity in peripheral blood mononuclear cells: only minor toxicity effects
Activated T cells; μM: 0
  Luciferase RLU (T cell viability): 92.63 ± 0.5221 RLU
Activated T cells; μM: 1
  Luciferase RLU (T cell viability): 89.79 ± 1.428 RLU
Activated T cells; μM: 2
  Luciferase RLU (T cell viability): 86.63 ± 0.8779 RLU
Activated T cells; μM: 3
  Luciferase RLU (T cell viability): 78.81 ± 3.223 RLU
Activated T cells; μM: −1
  Luciferase RLU (T cell viability): 91.35 ± 1.526 RLU
Activated T cells; μM: −2
  Luciferase RLU (T cell viability): 95.54 ± 3.15 RLU
Activated T cells; μM: −3
  Luciferase RLU (T cell viability): 97.36 ± 1.186 RLU
[2]; μM: 0
  Thymidine incorporation(CPM): 437978 ± 5214.787 CPM
[2]; μM: 1
  Thymidine incorporation(CPM): 385672.3 ± 9004.015^ CPM
[2]; μM: 2
  Thymidine incorporation(CPM): 300379.3 ± 25594 CPM
[2]; μM: 3
  Thymidine incorporation(CPM): 291128.7 ± 31076.09^ CPM
[2]; μM: −1
  Thymidine incorporation(CPM): 407235 ± 52888.48 CPM
[2]; μM: −2
  Thymidine incorporation(CPM): 408592.3 ± 11690 CPM
[2]; μM: −3
  Thymidine incorporation(CPM): 394950 ± 19054.05 CPM

## C[C@H]1Oc2cc(cnc2N)-c2c(nn(C)c2C#N)CN(C)C(=O)c2ccc(F)cc21 [PF-06463922, (10R)-7-amino-12-fluoro-2,10,16-trimethyl-15-oxo-10,15,16,17-tetrahydro-2H-8,4-(metheno)pyrazolo[4,3-h][2,5,11]benzoxadiazacyclotetradecine-3-carbonitrile]
CT26 colon carcinoma; Day 5
  Average tumor volume: 181.85 ± 12.6828 mm^3
CT26 colon carcinoma; Day 9
  Average tumor volume: 253.14 ± 34.78 mm^3
CT26 colon carcinoma; Day 14
  Average tumor volume: 548.44 ± 96.03 mm^3
CT26 colon carcinoma; Day 17
  Average tumor volume: 962.02 ± 180.1961 mm^3
CT26 colon carcinoma; Day 21
  Average tumor volume: 1696.96 ± 285.9975 mm^3
CT26 colon carcinoma; day 21 post tumor inoculation, relative to the isotype control
  tumor growth inhibition (TGI): 28.3%
CT26 colon carcinoma
  Effect on CT26 tumor growth: partially effective
CT26 colon carcinoma; listed as ALK inhibitor
  Effect on CT26 tumor growth: did not consistently inhibit CT26 tumor growth
B16 skin melanoma
  animals with a complete response (tumor free): no animals having a complete response
Activated T cells; FIG. 1B
  Effect on T cell viability: did not result in dose-dependent decreases in T cell viability
Activated T cells; μM: 0
  Luciferase RLU (T cell viability): 88.53 ± 0.7567 RLU
Activated T cells; μM: 1
  Luciferase RLU (T cell viability): 89.118 ± 1.283 RLU
Activated T cells; μM: 2
  Luciferase RLU (T cell viability): 88.6231 ± 1.573 RLU
Activated T cells; μM: 3
  Luciferase RLU (T cell viability): 40.36 ± 9.736 RLU
Activated T cells; μM: −1
  Luciferase RLU (T cell viability): 97.8625 ± 2.288 RLU
Activated T cells; μM: −2
  Luciferase RLU (T cell viability): 95.86 ± 0.6202 RLU
Activated T cells; μM: −3
  Luciferase RLU (T cell viability): 98.17 ± 0.6606 RLU
[2]; activated T cells, FIG. 1A
  Effect on T cell proliferation: did not have adverse effects on T cell proliferation
[2]; μM: 0
  Thymidine incorporation(CPM): 399866.7 ± 10135.82 CPM
[2]; μM: 1
  Thymidine incorporation(CPM): 364978.7 ± 37421.4 CPM
[2]; μM: 2
  Thymidine incorporation(CPM): 258875.3 ± 25269.1 CPM
[2]; μM: 3
  Thymidine incorporation(CPM): 94120.66 ± 2728.719 CPM
[2]; μM: −1
  Thymidine incorporation(CPM): 416579.3 ± 23523.21 CPM
[2]; μM: −2
  Thymidine incorporation(CPM): 411422.3 ± 13377.95 CPM
[2]; μM: −3
  Thymidine incorporation(CPM): 401448.3 ± 37205.07 CPM
